According to the supplement of paper PMC10307832:

Columns and labels:
Experiment in all cases: relative viability (nuclei count vs DMSO), 5 days (fraction); higher = more cells survive
Entinostat + Decitabine = compound: Nc1ccccc1NC(=O)c1ccc(CNC(=O)OCc2cccnc2)cc1 [Entinostat] + Nc1ncn([C@H]2C[C@H](O)[C@@H](CO)O2)c(=O)n1 [Decitabine] (partner 2 µM)
Method in brief: (§1)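 Dosing by pin tool came one day after lung cancer cell lines were seeded in 1536-well plates, using either one drug or a fixed anchor-drug dose plus five library-drug doses (not always all listed) in √10 steps. After 5 days, nuclei were counted on 4× images. Relative viability is treated-well nuclei count divided by vehicle-well nuclei count, and values are medians of duplicate plates.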

[1] = compound: C1COCCN1C2=NC(=NC3=C2OC4=C3C=CC=N4)C5=CC(=CC=C5)NC(=O)C6=CN=C(C=C6)N + Cc1cc(Nc2cc(N3CCN(C)CC3)nc(Sc3ccc(NC(=O)C4CC4)cc3)n2)n[nH]1 [Tozasertib] (partner 0.1 µM)
Method in brief: as §1

Entinostat + Linsitinib = compound: Nc1ccccc1NC(=O)c1ccc(CNC(=O)OCc2cccnc2)cc1 [Entinostat] + C[C@]1(O)C[C@@H](c2nc(-c3ccc4ccc(-c5ccccc5)nc4c3)c3c(N)nccn32)C1 [Linsitinib] (partner 1 µM)
Method in brief: as §1

SGI-1776 + OSI-027 = compound: CN1CCC(CNc2ccc3ncc(-c4cccc(OC(F)(F)F)c4)n3n2)CC1 [SGI-1776] + COc1cccc2cc(-c3nc([C@H]4CC[C@H](C(=O)O)CC4)n4ncnc(N)c34)[nH]c12 [OSI-027] (partner 0.5 µM)
Method in brief: as §1

## NCI-H2087
Entinostat + Decitabine; first compound 0.02 µM
  relative viability: 0.283
Entinostat + Decitabine; first compound 0.06325 µM
  relative viability: 0.302
Entinostat + Decitabine; first compound 0.2 µM
  relative viability: 0.186
Entinostat + Decitabine; first compound 0.6325 µM
  relative viability: 0.133
Entinostat + Decitabine; first compound 2 µM
  relative viability: 0.106
[1]; first compound 0.02 µM
  relative viability: 0.249
[1]; first compound 0.06325 µM
  relative viability: 0.265
[1]; first compound 0.2 µM
  relative viability: 0.202
[1]; first compound 0.6325 µM
  relative viability: 0.258
[1]; first compound 2 µM
  relative viability: 0.209
Entinostat + Linsitinib; first compound 0.02 µM
  relative viability: 0.815
Entinostat + Linsitinib; first compound 0.06325 µM
  relative viability: 0.733
Entinostat + Linsitinib; first compound 0.2 µM
  relative viability: 0.779
Entinostat + Linsitinib; first compound 0.6325 µM
  relative viability: 0.559
Entinostat + Linsitinib; first compound 2 µM
  relative viability: 0.481
SGI-1776 + OSI-027; first compound 0.08 µM
  relative viability: 0.704
SGI-1776 + OSI-027; first compound 0.8 µM
  relative viability: 0.693
SGI-1776 + OSI-027; first compound 2.53 µM
  relative viability: 0.566
SGI-1776 + OSI-027; first compound 8 µM
  relative viability: 0.496

## NCI-H520
Entinostat + Decitabine; first compound 0.02 µM
  relative viability: 0.571
Entinostat + Decitabine; first compound 0.06325 µM
  relative viability: 0.464
Entinostat + Decitabine; first compound 0.2 µM
  relative viability: 0.482
Entinostat + Decitabine; first compound 0.6325 µM
  relative viability: 0.385
Entinostat + Decitabine; first compound 2 µM
  relative viability: 0.35
[1]; first compound 0.02 µM
  relative viability: 0.431
[1]; first compound 0.06325 µM
  relative viability: 0.437
[1]; first compound 0.2 µM
  relative viability: 0.413
[1]; first compound 0.6325 µM
  relative viability: 0.479
[1]; first compound 2 µM
  relative viability: 0.327
Entinostat + Linsitinib; first compound 0.02 µM
  relative viability: 1.03
Entinostat + Linsitinib; first compound 0.06325 µM
  relative viability: 1.05
Entinostat + Linsitinib; first compound 0.2 µM
  relative viability: 1.09
Entinostat + Linsitinib; first compound 0.6325 µM
  relative viability: 0.897
Entinostat + Linsitinib; first compound 2 µM
  relative viability: 0.412
SGI-1776 + OSI-027; first compound 0.08 µM
  relative viability: 0.255
SGI-1776 + OSI-027; first compound 0.8 µM
  relative viability: 0.263
SGI-1776 + OSI-027; first compound 2.53 µM
  relative viability: 0.249
SGI-1776 + OSI-027; first compound 8 µM
  relative viability: 0.223

## Calu-6
Entinostat + Linsitinib; first compound 0.02 µM
  relative viability: 0.859
Entinostat + Linsitinib; first compound 0.06325 µM
  relative viability: 0.961
Entinostat + Linsitinib; first compound 0.2 µM
  relative viability: 0.852
Entinostat + Linsitinib; first compound 0.6325 µM
  relative viability: 0.739
Entinostat + Linsitinib; first compound 2 µM
  relative viability: 0.502

## SK-LU-1
Entinostat + Decitabine; first compound 0.02 µM
  relative viability: 0.643
Entinostat + Decitabine; first compound 0.06325 µM
  relative viability: 0.805
Entinostat + Decitabine; first compound 0.2 µM
  relative viability: 0.638
Entinostat + Decitabine; first compound 0.6325 µM
  relative viability: 0.473
Entinostat + Decitabine; first compound 2 µM
  relative viability: 0.418
[1]; first compound 0.02 µM
  relative viability: 0.348
[1]; first compound 0.06325 µM
  relative viability: 0.287
[1]; first compound 0.2 µM
  relative viability: 0.266
[1]; first compound 0.6325 µM
  relative viability: 0.284
[1]; first compound 2 µM
  relative viability: 0.314
Entinostat + Linsitinib; first compound 0.02 µM
  relative viability: 1.1
Entinostat + Linsitinib; first compound 0.06325 µM
  relative viability: 1.04
Entinostat + Linsitinib; first compound 0.2 µM
  relative viability: 0.909
Entinostat + Linsitinib; first compound 0.6325 µM
  relative viability: 0.657
Entinostat + Linsitinib; first compound 2 µM
  relative viability: 0.516
SGI-1776 + OSI-027; first compound 0.08 µM
  relative viability: 0.397
SGI-1776 + OSI-027; first compound 0.8 µM
  relative viability: 0.328
SGI-1776 + OSI-027; first compound 2.53 µM
  relative viability: 0.335
SGI-1776 + OSI-027; first compound 8 µM
  relative viability: 0.166

## LCLC-97TM1
Entinostat + Decitabine; first compound 0.02 µM
  relative viability: 0.23
Entinostat + Decitabine; first compound 0.06325 µM
  relative viability: 0.213
Entinostat + Decitabine; first compound 0.2 µM
  relative viability: 0.314
Entinostat + Decitabine; first compound 0.6325 µM
  relative viability: 0.163
Entinostat + Decitabine; first compound 2 µM
  relative viability: 0.16
[1]; first compound 0.02 µM
  relative viability: 0.266
[1]; first compound 0.06325 µM
  relative viability: 0.214
[1]; first compound 0.2 µM
  relative viability: 0.155
[1]; first compound 0.6325 µM
  relative viability: 0.405
[1]; first compound 2 µM
  relative viability: 0.261
Entinostat + Linsitinib; first compound 0.02 µM
  relative viability: 0.158
Entinostat + Linsitinib; first compound 0.06325 µM
  relative viability: 0.147
Entinostat + Linsitinib; first compound 0.2 µM
  relative viability: 0.139
Entinostat + Linsitinib; first compound 0.6325 µM
  relative viability: 0.165
Entinostat + Linsitinib; first compound 2 µM
  relative viability: 0.14
SGI-1776 + OSI-027; first compound 0.08 µM
  relative viability: 0.597
SGI-1776 + OSI-027; first compound 0.8 µM
  relative viability: 0.487
SGI-1776 + OSI-027; first compound 2.53 µM
  relative viability: 0.59
SGI-1776 + OSI-027; first compound 8 µM
  relative viability: 0.487

## HCC-15
Entinostat + Decitabine; first compound 0.02 µM
  relative viability: 0.622
Entinostat + Decitabine; first compound 0.06325 µM
  relative viability: 0.508
Entinostat + Decitabine; first compound 0.2 µM
  relative viability: 0.46
Entinostat + Decitabine; first compound 0.6325 µM
  relative viability: 0.261
Entinostat + Decitabine; first compound 2 µM
  relative viability: 0.151
[1]; first compound 0.02 µM
  relative viability: 0.462
[1]; first compound 0.06325 µM
  relative viability: 0.438
[1]; first compound 0.2 µM
  relative viability: 0.19
[1]; first compound 0.6325 µM
  relative viability: 0.205
[1]; first compound 2 µM
  relative viability: 0.208
Entinostat + Linsitinib; first compound 0.02 µM
  relative viability: 0.82
Entinostat + Linsitinib; first compound 0.06325 µM
  relative viability: 0.8
Entinostat + Linsitinib; first compound 0.2 µM
  relative viability: 0.713
Entinostat + Linsitinib; first compound 0.6325 µM
  relative viability: 0.546
Entinostat + Linsitinib; first compound 2 µM
  relative viability: 0.319
SGI-1776 + OSI-027; first compound 0.08 µM
  relative viability: 0.655
SGI-1776 + OSI-027; first compound 0.8 µM
  relative viability: 0.651
SGI-1776 + OSI-027; first compound 2.53 µM
  relative viability: 0.559
SGI-1776 + OSI-027; first compound 8 µM
  relative viability: 0.437

## H3255
Entinostat + Decitabine; first compound 0.02 µM
  relative viability: 0.58
Entinostat + Decitabine; first compound 0.06325 µM
  relative viability: 0.556
Entinostat + Decitabine; first compound 0.2 µM
  relative viability: 0.493
Entinostat + Decitabine; first compound 0.6325 µM
  relative viability: 0.268
Entinostat + Decitabine; first compound 2 µM
  relative viability: 0.218
[1]; first compound 0.02 µM
  relative viability: 0.779
[1]; first compound 0.06325 µM
  relative viability: 0.639
[1]; first compound 0.2 µM
  relative viability: 0.736
[1]; first compound 0.6325 µM
  relative viability: 0.847
[1]; first compound 2 µM
  relative viability: 0.957
Entinostat + Linsitinib; first compound 0.02 µM
  relative viability: 0.892
Entinostat + Linsitinib; first compound 0.06325 µM
  relative viability: 0.87
Entinostat + Linsitinib; first compound 0.2 µM
  relative viability: 0.765
Entinostat + Linsitinib; first compound 0.6325 µM
  relative viability: 0.507
Entinostat + Linsitinib; first compound 2 µM
  relative viability: 0.304
SGI-1776 + OSI-027; first compound 0.08 µM
  relative viability: 0.65
SGI-1776 + OSI-027; first compound 0.8 µM
  relative viability: 0.643
SGI-1776 + OSI-027; first compound 2.53 µM
  relative viability: 0.651
SGI-1776 + OSI-027; first compound 8 µM
  relative viability: 0.555

## NCI-H1915
Entinostat + Decitabine; first compound 0.02 µM
  relative viability: 0.276
Entinostat + Decitabine; first compound 0.06325 µM
  relative viability: 0.246
Entinostat + Decitabine; first compound 0.2 µM
  relative viability: 0.258
Entinostat + Decitabine; first compound 0.6325 µM
  relative viability: 0.229
Entinostat + Decitabine; first compound 2 µM
  relative viability: 0.197
[1]; first compound 0.02 µM
  relative viability: 0.439
[1]; first compound 0.06325 µM
  relative viability: 0.492
[1]; first compound 0.2 µM
  relative viability: 0.392
[1]; first compound 0.6325 µM
  relative viability: 0.408
[1]; first compound 2 µM
  relative viability: 0.264
Entinostat + Linsitinib; first compound 0.02 µM
  relative viability: 1.1
Entinostat + Linsitinib; first compound 0.06325 µM
  relative viability: 1.04
Entinostat + Linsitinib; first compound 0.2 µM
  relative viability: 0.966
Entinostat + Linsitinib; first compound 0.6325 µM
  relative viability: 0.912
Entinostat + Linsitinib; first compound 2 µM
  relative viability: 0.459
SGI-1776 + OSI-027; first compound 0.08 µM
  relative viability: 0.642
SGI-1776 + OSI-027; first compound 0.8 µM
  relative viability: 0.645
SGI-1776 + OSI-027; first compound 2.53 µM
  relative viability: 0.618
SGI-1776 + OSI-027; first compound 8 µM
  relative viability: 0.49

## NCI-H1650
Entinostat + Decitabine; first compound 0.02 µM
  relative viability: 0.381
Entinostat + Decitabine; first compound 0.06325 µM
  relative viability: 0.394
Entinostat + Decitabine; first compound 0.2 µM
  relative viability: 0.43
Entinostat + Decitabine; first compound 0.6325 µM
  relative viability: 0.258
Entinostat + Decitabine; first compound 2 µM
  relative viability: 0.273
[1]; first compound 0.02 µM
  relative viability: 0.472
[1]; first compound 0.06325 µM
  relative viability: 0.425
[1]; first compound 0.2 µM
  relative viability: 0.328
[1]; first compound 0.6325 µM
  relative viability: 0.338
[1]; first compound 2 µM
  relative viability: 0.255
SGI-1776 + OSI-027; first compound 0.08 µM
  relative viability: 0.627
SGI-1776 + OSI-027; first compound 0.8 µM
  relative viability: 0.565
SGI-1776 + OSI-027; first compound 2.53 µM
  relative viability: 0.417
SGI-1776 + OSI-027; first compound 8 µM
  relative viability: 0.197
